# Measured values: PMC11890623, “Pseudomonas aeruginosa acyl-CoA dehydrogenases and structure-guided inversion of their substrate specificity” (Nature Communications, 2025)
# Key:
# FadE2 = target: T1, FadE2 (Pseudomonas aeruginosa, UniProt Q9I610); assay: X-ray crystal structure, […] Å; assay type: binding
# T1 construct: gene PA0508; full-length ORF, His6 tag removed by TEV
# FadE1 = target: T2, FadE1 (Pseudomonas aeruginosa, UniProt Q9I612); assay: X-ray crystal structure, […] Å; assay type: binding
# T2 construct: gene PA0506; full-length ORF, His6 tag removed by TEV
# T2 sequence (Q9I612 entry or part of it): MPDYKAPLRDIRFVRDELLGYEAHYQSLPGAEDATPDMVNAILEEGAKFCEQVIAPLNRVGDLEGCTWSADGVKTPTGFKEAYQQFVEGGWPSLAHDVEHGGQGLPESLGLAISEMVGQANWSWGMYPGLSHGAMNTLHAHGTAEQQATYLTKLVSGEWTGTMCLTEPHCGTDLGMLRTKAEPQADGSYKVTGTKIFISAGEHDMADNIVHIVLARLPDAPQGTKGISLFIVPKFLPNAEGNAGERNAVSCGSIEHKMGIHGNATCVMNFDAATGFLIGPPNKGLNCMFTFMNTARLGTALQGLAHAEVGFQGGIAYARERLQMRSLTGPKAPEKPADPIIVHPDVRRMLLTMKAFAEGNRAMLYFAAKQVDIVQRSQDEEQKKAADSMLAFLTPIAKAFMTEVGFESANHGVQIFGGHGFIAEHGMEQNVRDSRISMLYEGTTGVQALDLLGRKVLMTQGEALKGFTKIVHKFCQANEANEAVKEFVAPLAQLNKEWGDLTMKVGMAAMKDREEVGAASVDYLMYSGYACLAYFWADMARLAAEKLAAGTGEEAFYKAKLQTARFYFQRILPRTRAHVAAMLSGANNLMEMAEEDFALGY
# T1 sequence (Q9I610 entry or part of it): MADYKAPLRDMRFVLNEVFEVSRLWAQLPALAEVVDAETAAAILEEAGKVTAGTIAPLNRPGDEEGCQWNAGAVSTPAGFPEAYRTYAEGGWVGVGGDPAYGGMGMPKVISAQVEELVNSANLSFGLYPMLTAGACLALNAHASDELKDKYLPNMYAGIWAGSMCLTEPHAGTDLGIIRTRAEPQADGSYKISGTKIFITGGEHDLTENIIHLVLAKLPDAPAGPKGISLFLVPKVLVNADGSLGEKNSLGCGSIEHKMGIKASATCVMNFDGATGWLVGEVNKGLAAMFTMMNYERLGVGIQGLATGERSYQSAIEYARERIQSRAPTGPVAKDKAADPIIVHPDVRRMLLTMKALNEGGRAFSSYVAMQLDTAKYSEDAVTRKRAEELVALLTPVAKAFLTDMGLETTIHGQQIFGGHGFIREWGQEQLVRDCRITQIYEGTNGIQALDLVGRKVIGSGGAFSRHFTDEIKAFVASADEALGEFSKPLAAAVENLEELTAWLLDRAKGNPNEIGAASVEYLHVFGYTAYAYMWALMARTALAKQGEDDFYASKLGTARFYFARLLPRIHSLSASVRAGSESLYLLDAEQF
smiles,measurement,setting,value
Cc1cc2nc3c(=O)[nH]c(=O)nc-3n(C[C@H](O)[C@H](O)[C@H](O)COP(=O)(O)OP(=O)(O)OC[C@H]3O[C@@H](n4cnc5c(N)ncnc54)[C@H](O)[C@@H]3O)c2cc1C [FAD],"X-ray crystal structure, 1.94 Å",FadE2,One FAD molecule was bound in each protomer of FadE1 and FadE2.
same,"X-ray crystal structure, 2.08 Å",FadE1,One FAD molecule was bound in each protomer of FadE1 and FadE2.
